Values joined by “and” are separate entries in the source; they are usually repeats but may differ in a detail not shown here. Identical values can stand only once.
Tests used:
[1] = cited from earlier work
[2] = tested on: PGE2 release from keratinocytes; experiment: Prostaglandin E2 (PGE2) assay in UVB-stressed TERT keratinocytes, normalized to ATP activity; type: cell-based, human; conditions: tKC
Excerpt: Inhibiting the Cell's Inflammation Response to a Stressor—Prostaglandin E2 (“PGE2”) Assay.
PGE2 is a hormone-like substance that is known to participate in modulation of inflammation. Cellular inflammation is associated with a variety of hair, skin and scalp conditions, and thus inhibiting PGE2 activation vis-à-vis cellular inflammation may help treat these types of hair, skin and scalp conditions.
TERT keratinocytes (“tKC”-tKCs are human keratinocytes which have been transfected with the human telomerase reverse transcriptase gene to immortalize the cells) are obtained from Jerry Shay, University of Texas, Southwestern and plated at 40,000 cells/well into 24-well plates in 1 ml/well volume. EpiLife Medium (Life Technologies cat # MEPICFPRF500) supplemented with keratinocyte growth supplement (Life technologies cat #S-001-5) is used as the assay media. The cells are grown to confluence/near confluence, (typically 24 hours after plating 40,000 cells/well in 24 well plate) and then subjected to 15 mJ/cm^2 UVB-stress (typically […] in BioSun). The test compositions (strobilurins, salicylic acid, strobilurins+salicylic acid, and positive control 10 uM idebenone) are added to replace the medium (EpiLife Medium with 0.1% final concentration of DMSO-briefly, 1000× stocks of actives and combinations made in 100% DMSO and diluted into Epilife media 1 to 1000), and the plates are incubated for 18-24 hours. The supernatant is removed from each well, and the cells are rinsed with 2 ml/well medium (without supplements). A Cell Titer-Glo assay (Promega cat # G7571; Madison Wis.) is used to measure ATP activity, is conducted on the cells for normalization. The supernatant is tested in a PGE2 assay (Prostaglandin E2 Assay kit from Cisbio Bioassays cat# 62P2APEB) according to the manufacturer's instructions. The PGE2 results are normalized to ATP activity. The PGE2 quantitation (pg/mL) from the supernatant is divided by the normalization factor (treatment ATP/control ATP).
Example Calculation to Compute PGE2 Inhibition by Strobilurin
Luminescence of vehicle control in ATP assay=704567
Luminescence of strobilurin treatment in ATP assay=678903
Normalization factor for strobilurin treatment=1.038
PGE2 quantitation for vehicle control=2458 pg/mL PGE2
PGE2 quantitation for strobilurin treatment=2347 pg/mL PGE2
Student's T-Test (equal variance, 2 sided) are used to calculate p-values between observed combinations and expected combinations with p-value <0.05 considered statistically significant. Expected combination values are calculated by adding the PGE2 inhibition values of strobilurins alone and salicylic acid alone. Synergy factor is simply the ratio of observed combination/expected combination. Synergy factors greater than 1.0 with a p-value <0.05 are deemed synergistic.

[3] = strobilurin alone, 1 × 10−5 w/v % (100:1), UVB
[4] = strobilurin alone, 1 × 10−6 w/v % (10:1), UVB
[5] = strobilurin alone, 1 × 10−7 w/v % (1:1), UVB
[6] = strobilurin alone, 1 × 10−7 w/v % (column 1:10), 15 mJ/cm2 UVB, 18-24 hours
[7] = strobilurin alone, 5 × 10−6 w/v % (50:1), UVB

SMILES | solubility in water [1] | % PGE2 Inhibition [2, 3] [%] | % PGE2 Inhibition [2, 4] [%] | % PGE2 Inhibition [2, 5] [%] | % PGE2 Inhibition [2, 6] [%] | % PGE2 Inhibition [2, 7] [%] | % PGE2 Inhibition ([2]; salicylic acid alone, 1 × 10−6 (column 1:10), UVB) | % PGE2 Inhibition ([2]; salicylic acid alone, 1 × 10−7 (1:1), UVB) | % PGE2 Inhibition ([2]; salicylic acid alone, 1 × 10−7 (10:1), UVB) | % PGE2 Inhibition ([2]; salicylic acid alone, 1 × 10−7 (50:1), UVB) | % PGE2 Inhibition ([2]; salicylic acid alone, 1 × 10−7 (100:1), UVB)
CO/C=C(/C(=O)OC)c1ccccc1Oc1cc(Oc2ccccc2C#N)ncn1 [azoxystrobin] | low | 58 | 22 | 8 | 8 | 37 | – | – | – | – | –
CNC(=O)/C(=N/OC)c1ccccc1COc1cc(C)ccc1C [dimoxystrobin] | – | 13 | 7 | 4 | 4 | 11 | – | – | – | – | –
CO/N=C(/C1=NOCCO1)c1ccccc1Oc1ncnc(Oc2ccccc2Cl)c1F [fluoxastrobin] | – | 42 | 9 | 5 | 5 | 17 | – | – | – | – | –
CO/N=C(/C(=O)OC)c1ccccc1COc1ccccc1C [kresoxim methyl] | – | 12 | 7 | 5 | 5 | 9 | – | – | – | – | –
CNC(=O)/C(=N/OC)c1ccccc1CO/N=C(C)/C(=N/OC)C(/C)=N/OC [orysastrobin] | – | 36 | 12 | 6 | 6 | 18 | – | – | – | – | –
CO/C=C(/C(=O)OC)c1ccccc1COc1cccc(C(F)(F)F)n1 [picoxystrobin] | – | 24 | 12 | 6 | 6 | 18 | – | – | – | – | –
COC(=O)N(OC)c1ccccc1COc1ccn(-c2ccc(Cl)cc2)n1 [pyraclostrobin] | – | 70.4 | 46.0 | 30.4 | 30.4 | 55.3 | – | – | – | – | –
O=C(O)c1ccccc1O [salicylic acid, reference compound] | – | – | – | – | – | – | 32% and 31.4% | 18% and 16.2% | 18% and 16.2% | 18% and 16.2% | 18% and 16.2%
CON=C(C(=O)OC)c1ccccc1CON=C(C)c1cccc(C(F)(F)F)c1 [trifloxystrobin] | – | 8 | 7 | 5 | 5 | 8 | – | – | – | – | –
